# Results as given in patent publication US20180272034A1, “USE OF CSA COMPOUNDS TO PREVENT MICROBIAL BUILD-UP OR FOULING OF MEDICAL IMPLANTS” (BRIGHAM YOUNG UNIVERSITY, priority 2017, published 2018).
# Key:
# [1] = tested on: Staphylococcus aureus; conditions: mixed-species biofilms grown 22 hours, 20 hours of treatment
# Protocol: (§1) Several CSA compounds were tested against Pseudomonas aeruginosa and Staphylococcus aureus mixed-species biofilms grown for an initial 22 hours and subjected to 20 hours of treatment.
# [2] = tested on: Pseudomonas aeruginosa; conditions: mixed-species biofilms grown 22 hours, 20 hours of treatment
# Protocol: as §1
# [3] = tested on: Pseudomonas aeruginosa (PA01); assay: Coated endotracheal tube segments, daily re-inoculation, growth in medium; format: cell-based; parameters: key to bacterial growth in medium, Day 1 / bacterial growth in medium, Day 2 / bacterial growth in medium, Day 3 / bacterial growth in medium, Day 4 / bacterial growth in medium, Day 5 / bacterial growth in medium, Day 6 / bacterial growth in medium, Day 7 / bacterial growth in medium, Day 10 / bacterial growth in medium, Day 8 / bacterial growth in medium, Day 9: N=no growth; G=growth; conditions: hydrogel coating 10% CSA-131 HCl, 3% citric acid, PA01 re-inoculated every 24 h
# Protocol: A hydrogel coating containing 10% CSA-131 HCl and 3% citric acid, relative to the hydrogel solids, was tested for antibacterial efficacy using endotracheal tube segments (5.0 mm). These tube segments (surface area of ca. 1.5 cm^2) were dip coated and cured to give coatings of approximately 10 microns. Coated tube segments were washed in phosphate buffered saline (PBS) for varied amounts of time before testing. Antibacterial testing involved immersing tube segments in 10% TSB in PBS (1.0 mL) and inoculating with Pseudomonas aeruginosa (PA01)@10^6 colony forming units (CFU). Samples were incubated for 24 h, and bacterial growth in the medium was assayed visually (i.e., turbidity in the medium is caused by unrestricted bacterial growth). […] And the converse is true: if growth is supported in the medium that the device is colonized, to some extent.
# After 24 h of incubation, tube segments were immersed in fresh growth media (10% TSB in PBS, 1 mL), re-inoculated, and incubated. […] Experiments were performed in triplicate. N=no growth, G=growth.
# Antibacterial activity of a hydrogel coating (ca. 10 microns) containing CSA-131 2-NDSA (10% by weight relative to hydrogel solids) was determined as described in Example 8 using methicillin-resistant Staphylococcus aureus (MRSA) and Pseudomonas aeruginosa (PA01).
# [4] = Hydrogel coating stability and reaction with ethylene oxide (ETO)
# Protocol: Releases of CSA-131 from hydrogel-based coatings were investigated, including examining coating stability and reaction of the coating with ethylene oxide (ETO) during sterilization processes. […] To mask this reactivity, coatings were prepared including varies percentages of citric acid to form non-volatile salts of the CSA compound.
# Using a jet mill (Fluid Energy), CSA-131 2-NDSA was milled to an average particle size of 200 nm.
smiles,measurement,setting,value
CC(CCCOCCCN)C1CCC2C3C(OCCCN)CC4CC(OCCCN)CCC4(C)C3CC(OCCCN)C12C.Cl.Cl.Cl.Cl (stereo not drawn) [CSA-25],MBC S. aureus,[1],3.25 µg/mL
same,MIC S. aureus,[1],1.56 µg/mL
same,MBC P. aeruginosa,[2],50 µg/mL
same,MIC P. aeruginosa,[2],25 µg/mL
CC(O)C1CCC2C3C(OCCCN)CC4CC(OCCCN)CCC4(C)C3CC(OCCCN)C12C.Cl.Cl.Cl (mixture of isomers) [CSA-11],MBC S. aureus,[1],50 µg/mL
same,MIC S. aureus,[1],50 µg/mL
same,MBC P. aeruginosa,[2],>200 µg/mL
same,MIC P. aeruginosa,[2],>200 µg/mL
CCCCCCOC(=O)CCC(C)C1CCC2C3C(OC(=O)CCN)CC4CC(OC(=O)CCN)CCC4(C)C3CC(OC(=O)CCN)C12C.Cl.Cl.Cl (stereo not drawn) [CSA-142],MBC S. aureus,[1],3.125 µg/mL
same,MIC S. aureus,[1],3.125 µg/mL
same,MBC P. aeruginosa,[2],3.125 µg/mL
same,MIC P. aeruginosa,[2],3.125 µg/mL
CCCCCCCCCOC(=O)CCC(C)C1CCC2C3C(OC(=O)CCN)CC4CC(OC(=O)CCN)CCC4(C)C3CC(OC(=O)CCN)C12C.Cl.Cl.Cl (stereo not drawn) [CSA-145],MBC S. aureus,[1],3.125 µg/mL
same,MIC S. aureus,[1],3.125 µg/mL
same,MBC P. aeruginosa,[2],50 µg/mL
same,MIC P. aeruginosa,[2],12.5 µg/mL
CCCCCCCCOC(=O)CC[C@@H](C)[C@H]1CC[C@H]2[C@@H]3[C@H](OC(=O)CCN)C[C@@H]4C[C@H](OC(=O)CCN)CC[C@]4(C)[C@H]3C[C@H](OC(=O)CCN)[C@]12C [CSA-44],MBC S. aureus,[1],3.25 µg/mL
same,MIC S. aureus,[1],1.56 µg/mL
same,MBC P. aeruginosa,[2],6.25 µg/mL
same,MIC P. aeruginosa,[2],3.125 µg/mL
"CC[C@H](C)[C@H](NC(=O)[C@H](CCCCN)NC(=O)[C@H](CCC(=O)O)NC(=O)[C@H](CCCCN)NC(=O)[C@H](CO)NC(=O)[C@H](CCCCN)NC(=O)[C@H](CCCNC(=N)N)NC(=O)[C@H](Cc1ccccc1)NC(=O)[C@H](Cc1ccccc1)NC(=O)[C@H](CC(=O)O)NC(=O)CNC(=O)[C@H](CC(C)C)NC(=O)[C@@H](N)CC(C)C)C(=O)NCC(=O)N[C@@H](CCCCN)C(=O)N[C@@H](CCC(=O)O)C(=O)N[C@@H](Cc1ccccc1)C(=O)N[C@@H](CCCCN)C(=O)N[C@@H](CCCNC(=N)N)C(=O)N[C@H](C(=O)N[C@H](C(=O)N[C@@H](CCC(N)=O)C(=O)N[C@@H](CCCNC(=N)N)C(=O)N[C@H](C(=O)N[C@@H](CCCCN)C(=O)N[C@@H](CC(=O)O)C(=O)N[C@@H](Cc1ccccc1)C(=O)N[C@@H](CC(C)C)C(=O)N[C@@H](CCCNC(=N)N)C(=O)N[C@@H](CC(N)=O)C(=O)N[C@@H](CC(C)C)C(=O)N[C@H](C(=O)N1CCC[C@H]1C(=O)N[C@@H](CCCNC(=N)N)C(=O)N[C@H](C(=O)N[C@@H](CCC(=O)O)C(=O)N[C@@H](CO)C(=O)O)[C@@H](C)O)C(C)C)[C@@H](C)CC)C(C)C)[C@@H](C)CC [LL-37, reference compound]",MBC S. aureus,[1],>200 µg/mL
same,MIC S. aureus,[1],>200 µg/mL
same,MBC P. aeruginosa,[2],>200 µg/mL
same,MIC P. aeruginosa,[2],>200 µg/mL
CCCCCCCCNC(=O)CCC(C)C1CCC2C3C(OCCCN)CC4CC(OCCCN)CCC4(C)C3CC(OCCCN)C12C.Cl.Cl.Cl (stereo not drawn) [CSA-192],MBC S. aureus,[1],1.56 µg/mL
same,MIC S. aureus,[1],0.78 µg/mL
same,MBC P. aeruginosa,[2],6.25 µg/mL
same,MIC P. aeruginosa,[2],3.125 µg/mL
CCCCCCCCCCCCNCCC[C@@H](C)[C@H]1CC[C@H]2[C@@H]3[C@H](OCCCN)C[C@@H]4C[C@H](OCCCN)CC[C@]4(C)[C@H]3C[C@H](OCCCN)[C@]12C.Cl.Cl.Cl.Cl [CSA-131 HCl],"bacterial growth in medium, Day 1",[3]; Unwashed,N
same,"bacterial growth in medium, Day 2",[3]; Unwashed,N
same,"bacterial growth in medium, Day 3",[3]; Unwashed,N
same,"bacterial growth in medium, Day 4",[3]; Unwashed,N
same,"bacterial growth in medium, Day 5",[3]; Unwashed,G
same,"bacterial growth in medium, Day 6",[3]; Unwashed,G
same,"bacterial growth in medium, Day 7",[3]; Unwashed,G
same,"bacterial growth in medium, Day 1",[3]; Wash Time 15 min in PBS,N
same,"bacterial growth in medium, Day 2",[3]; Wash Time 15 min in PBS,N
same,"bacterial growth in medium, Day 3",[3]; Wash Time 15 min in PBS,N
same,"bacterial growth in medium, Day 4",[3]; Wash Time 15 min in PBS,N
same,"bacterial growth in medium, Day 5",[3]; Wash Time 15 min in PBS,G
same,"bacterial growth in medium, Day 6",[3]; Wash Time 15 min in PBS,G
same,"bacterial growth in medium, Day 7",[3]; Wash Time 15 min in PBS,G
same,"bacterial growth in medium, Day 1",[3]; Wash Time 30 min in PBS,N
same,"bacterial growth in medium, Day 2",[3]; Wash Time 30 min in PBS,N
same,"bacterial growth in medium, Day 3",[3]; Wash Time 30 min in PBS,N
same,"bacterial growth in medium, Day 4",[3]; Wash Time 30 min in PBS,N
same,"bacterial growth in medium, Day 5",[3]; Wash Time 30 min in PBS,G
same,"bacterial growth in medium, Day 6",[3]; Wash Time 30 min in PBS,G
same,"bacterial growth in medium, Day 7",[3]; Wash Time 30 min in PBS,G
same,"bacterial growth in medium, Day 1",[3]; Wash Time 1 hour in PBS,N
same,"bacterial growth in medium, Day 2",[3]; Wash Time 1 hour in PBS,N
same,"bacterial growth in medium, Day 3",[3]; Wash Time 1 hour in PBS,N
same,"bacterial growth in medium, Day 4",[3]; Wash Time 1 hour in PBS,N
same,"bacterial growth in medium, Day 5",[3]; Wash Time 1 hour in PBS,G
same,"bacterial growth in medium, Day 6",[3]; Wash Time 1 hour in PBS,G
same,"bacterial growth in medium, Day 7",[3]; Wash Time 1 hour in PBS,G
same,mechanical integrity of coating on silicone tube segments,"[4]; CSA-131 HCl 10% relative to coating solids, prolonged soaking in buffer",some flaking of the coating
same,ETO adduct formation,[4]; hydrogel coating with at least 3% (by weight relative to hydrogel solids) citric acid,eliminated
same,reaction with ETO during sterilization,[4]; tube segments coated with hydrogel containing CSA-131 HCl (10%),"substantial reaction, leading to ETO adducts"
CCCCCN(CCCCC)CCC[C@@H](C)[C@H]1CC[C@H]2[C@@H]3[C@H](OCCCN)C[C@@H]4C[C@H](OCCCN)CC[C@]4(C)[C@H]3C[C@H](OCCCN)[C@]12C [CSA-90],MBC S. aureus,[1],1.56 µg/mL
same,MIC S. aureus,[1],1.56 µg/mL
same,MBC P. aeruginosa,[2],6.25 µg/mL
same,MIC P. aeruginosa,[2],6.25 µg/mL
C[C@H](CCCNCCCNCCCN)[C@H]1CC[C@H]2[C@@H]3[C@H](OCCCN)C[C@@H]4C[C@H](OCCCN)CC[C@]4(C)[C@H]3C[C@H](OCCCN)[C@]12C.Cl.Cl.Cl.Cl.Cl.Cl [CSA-54],MBC S. aureus,[1],25 µg/mL
same,MIC S. aureus,[1],6.25 µg/mL
same,MBC P. aeruginosa,[2],100 µg/mL
same,MIC P. aeruginosa,[2],50 µg/mL
CCCCCCCCCCOC(=O)CCC(C)C1CCC2C3C(OC(=O)CCN)CC4CC(OC(=O)CCN)CCC4(C)C3CC(OC(=O)CCN)C12C.Cl.Cl.Cl (stereo not drawn) [CSA-144],MBC S. aureus,[1],3.125 µg/mL
same,MIC S. aureus,[1],3.125 µg/mL
same,MBC P. aeruginosa,[2],50 µg/mL
same,MIC P. aeruginosa,[2],12.5 µg/mL
CCCCCCCCNCCC[C@@H](C)[C@H]1CC[C@H]2[C@@H]3[C@H](OCCCN)C[C@@H]4C[C@H](OCCCN)CC[C@]4(C)[C@H]3C[C@H](OCCCN)[C@]12C [CSA-13],MBC S. aureus,[1],0.78 µg/mL
same,MIC S. aureus,[1],0.78 µg/mL
same,MBC P. aeruginosa,[2],6.25 µg/mL
same,MIC P. aeruginosa,[2],3.125 µg/mL
